Laboratory results from US20150094321A1, “COMBINATION” (GlaxoSmithKline LLC, priority 2009, published 2015).

What was measured:
Experiment in all cases: Cell line proliferation study
Assay type in all cases: cell-based, human
HT29 = conditions: HT29, colon; for IC50: Homo sapiens, HT-29, 72 hours, read-out: gIC50
Description: (§1) In a separate study, combination drug tests with Compounds A and B were conducted using a panel of cell lines from human colon cancers (n=26), lung cancers (n=15) and pancreatic cancers (n=6). Cell lines were obtained from commercial vendors (ATCC and DSMZ). Cell lines were grown in RPMI-1640 supplemented with 2 mM glutamine, 1 mM sodium pyruvate and 10% fetal bovine serum (except for Capan-1 and HuP-T4 which were grown with 20% fetal bovine serum) and maintained at 37° C. and 5% CO2 in a humid incubator. Assays were performed in 384 well microtiter plates with optimum seeding densities for each cell line.
(§2) The test compounds were prepared as 10 mM stocks in 100% DMSO. Further dilutions of the compounds were made in DMSO. Compound A was diluted horizontally in a separate 96 well microtiter plate in rows D-G using a 3-fold dilution series for 10 dilution points. Compound B was similarly diluted horizontally in a 96 well microtiter plate in rows B-E using a 3-fold dilution series for 10 dilution points.
(§3) The two compounds were combined using equal volumes from each drug plate into cell culture media. […] Both Compound A and Compound B were individually titrated in rows B and C (for Compound B) and rows F and G (for Compound A) of the merged drug plate.
(§4) A 1:10 dilution of the drugs was performed in cell culture media prior to addition to the cells.
(§5) The final concentration range for the test compounds was 250 to 0.013 nM for Compound A and 1000 to […] for Compound B. The positive control consisted of culture media with DMSO at 0.1% and cells. The negative control consisted of culture media with DMSO at 0.1%. The cell lines were incubated at 37° C., 5% CO2 in humid air for 72 hours. Cell proliferation was measured using the CellTiter Glo (Promega) reagent according to the manufacturer's protocol. The plates are treated with CellTiter Glo solution and are analyzed for RLU (relative light units) using a Molecular Devices SpectraMax M5 plate reader.
(§6) The percent intensity values were used in model 205 of XLfit (IDBS, Inc.) in Microsoft Excel to calculate gIC50 values using a 4 parameter logistical fit. The midpoint of the growth window (the gIC50) falls half way between the number of cells at the time of compound addition (T=0) and the growth of control cells treated with DMSO at 72 hrs. The number of cells at time zero (T0) is divided from the intensity value at the bottom of the response curve (Ymin) to generate a measure for cell death (Ymin/T0). A value below 1 for Ymin/T0 indicates stronger potency to induce cell death with the treatment when compared to higher values.
(§7) 1. Excess over Highest Single Agent (EOHSA)—This was calculated as described above (Borisy et al, 2003; FDA 21 CFR 300.50) 2. Bliss synergy—A second criterion often used to determine combination synergy is evaluating the excess inhibition over Bliss independence or “additivity” (Bliss and Mexico, 1939). The model assumes a combined response of the two compounds independently using the following:
(§8) Where Ea is the effect (or percent inhibition) of Compound A and Eb is the effect of Compound B. The resulting effect of the combination of the two compounds is compared to their predicted additivity by Bliss and a synergy score is generated for each dose along the response curve. 3. Combination Index (CI)—A third criterion traditionally used for the evaluation of synergy is Combination Index (CI) derived from the Chou and Talalay (1984). The following equation is a model used for compounds that behave with different mechanisms of action (mutually non-exclusive formula). This was calculated as described above.
(§9) For EOHSA and Bliss Synergy measures, a score is generated for each dose along the response curve. These scores reflect the percentage over the highest agent (EOHSA) or percentage greater than Bliss additivity, depending on which metric is being interpreted. […]

LS1034 = conditions: LS1034, colon; for IC50: Homo sapiens, LS-1034, 72 hours, read-out: gIC50
Description: as §1, §2, §3, §4, §5, §6, §7, §8, §9

LS174T = conditions: colon; for IC50: Homo sapiens, 72 hours, read-out: gIC50
Description: as §1, §2, §3, §4, §5, §6, §7, §8, §9

MiaPaCa = conditions: for IC50: Homo sapiens, MIA PaCa-2, pancreas, 72 hours, read-out: gIC50; for Ymin/T0: pancreas
Description: as §1, §2, §3, §4, §5, §6, §7, §8, §9

NCIH1299 = conditions: NCIH1299, lung; for IC50: Homo sapiens, NCI-H1299, 72 hours, read-out: gIC50
Description: as §1, §2, §3, §4, §5, §6, §7, §8, §9

NCIH1563 = conditions: NCIH1563, lung; for IC50: Homo sapiens, NCI-H1563, 72 hours, read-out: gIC50
Description: as §1, §2, §3, §4, §5, §6, §7, §8, §9

NCIH2030 = conditions: NCIH2030, lung; for IC50: Homo sapiens, NCI-H2030, 72 hours, read-out: gIC50
Description: as §1, §2, §3, §4, §5, §6, §7, §8, §9

SW48 = conditions: SW48, colon; for IC50: Homo sapiens, 72 hours, read-out: gIC50
Description: as §1, §2, §3, §4, §5, §6, §7, §8, §9

SW620 = conditions: SW620, colon; for IC50: Homo sapiens, SW-620, 72 hours, read-out: gIC50
Description: as §1, §2, §3, §4, §5, §6, §7, §8, §9

SW837 = conditions: SW837, colon; for IC50: Homo sapiens, 72 hours, read-out: gIC50
Description: as §1, §2, §3, §4, §5, §6, §7, §8, §9

SW900 = conditions: SW900, lung; for IC50: Homo sapiens, 72 hours, read-out: gIC50
Description: as §1, §2, §3, §4, §5, §6, §7, §8, §9

SW948 = conditions: SW948, colon; for IC50: Homo sapiens, 72 hours, read-out: gIC50
Description: as §1, §2, §3, §4, §5, §6, §7, §8, §9

T84 = conditions: T84, colon; for IC50: Homo sapiens, 72 hours, read-out: gIC50
Description: as §1, §2, §3, §4, §5, §6, §7, §8, §9

WiDr = conditions: colon; for IC50: Homo sapiens, 72 hours, read-out: gIC50
Description: as §1, §2, §3, §4, §5, §6, §7, §8, §9

YAPC = conditions: pancreas; for IC50: Homo sapiens, 72 hours, read-out: gIC50
Description: as §1, §2, §3, §4, §5, §6, §7, §8, §9

| Compound | Ymin/T0 (HT29) | IC50 (HT29) [nM] | IC50 (LS1034) [nM] | Ymin/T0 (LS1034) | IC50 (LS174T) [nM] | Ymin/T0 (LS174T) | IC50 (MiaPaCa) [nM] | Ymin/T0 (MiaPaCa) | IC50 (NCIH1299) [nM] | Ymin/T0 (NCIH1299) | IC50 (NCIH1563) [nM] | Ymin/T0 (NCIH1563) | IC50 (NCIH2030) [nM] | Ymin/T0 (NCIH2030) | IC50 (SW48) [nM] | Ymin/T0 (SW48) | IC50 (SW620) [nM] | Ymin/T0 (SW620) | IC50 (SW837) [nM] | Ymin/T0 (SW837) | other results |
| --- | --- | --- | --- | --- | --- | --- | --- | --- | --- | --- | --- | --- | --- | --- | --- | --- | --- | --- | --- | --- | --- |
| CC(=O)Nc1cccc(-n2c(=O)n(C3CC3)c(=O)c3c(Nc4ccc(I)cc4F)n(C)c(=O)c(C)c32)c1 [Compound A, N-{3-[3-cyclopropyl-5-(2-fluoro-4-iodo-phenylamino)-6,8-dimethyl-2,4,7-trioxo-3,4,6,7-tetrahydro-2H-pyrido[4,3-d]pyrimidin-1-yl]phenyl}acetamide] | 11.99 | 3.6 | 37 | 2.87 | 81.4 | 18.26 | 23.5 | 25.0 | 24 | 45.9 | > 250 | 26.6 | > 250 | 55.8 | 8.16 | 13.02 | 15.2 | 15.46 | 153 | 25.58 | IC50 (SW900): 15 nM; Ymin/T0 (SW900): −5.9; IC50 (SW948): 185 nM; Ymin/T0 (SW948): 27.87; IC50 (T84): 139 nM; Ymin/T0 (T84): 12.44; IC50 (WiDr): 1.85 nM; Ymin/T0 (WiDr): 3.94; IC50 (YAPC): > 250 nM; Ymin/T0 (YAPC): 59.4 |
| Cn1ncc(Cl)c1-c1cc(C(=O)N[C@H](CN)Cc2ccc(F)c(F)c2)oc1Cl [Compound B, N-{(1S)-2-amino-1-[(3,4-difluorophenyl)methyl]ethyl}-5-chloro-4-(4-chloro-1-methyl-1H-pyrazol-5-yl)-2-furancarboxamide] | 11.64 | 780 | > 1000 | −0.67 | > 1000 | 19.70 | > 1000 | 0.7 | > 1000 | 58.1 | 65 | 27.6 | > 1000 | 40.7 | 428 | 11.68 | > 1000 | 76.65 | > 1000 | 63.88 | IC50 (SW900): > 1000 nM; Ymin/T0 (SW900): 47.3; IC50 (SW948): 609 nM; Ymin/T0 (SW948): 20.46; IC50 (T84): 427 nM; Ymin/T0 (T84): −5.58; IC50 (WiDr): 700 nM; Ymin/T0 (WiDr): 5.24; IC50 (YAPC): > 1000 nM; Ymin/T0 (YAPC): 55.2 |
